Test results reported in patent US8076487B2, “Pyridone derivative and herbicide” (Kumiai Chemical Industry Co., Ltd., priority 2006, dated 2011).

What was measured:
Type in all cases: in vivo
[1] = tested on: early watergrass (Echinochloa oryzicola Vasing); test: Test Example 1: herbicidal effect by soil application to paddy field; settings: paddy field soil application; active ingredient 1,000 g per 1 hectare; wettable powder added dropwise to water surface the day after sowing; examined on the 21st day after application
Procedure, shortened: (§1)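 Plants were sown in flooded (3 cm) paddy soil and evaluated for herbicidal effect 21 days after soil application in a greenhouse.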

[2] = tested on: heartshape false pickerelweed (Monochoria vaginalis (Burm.f.) C.Presl); test: as above; settings: paddy field soil application; active ingredient 1,000 g per 1 hectare; wettable powder added dropwise to water surface the day after sowing; examined on the 21st day after application
Procedure, shortened: as §1

[3] = tested on: Japanese bulrush (Scirpus juncoides Roxb.); test: as above; settings: paddy field soil application; active ingredient 1,000 g per 1 hectare; wettable powder added dropwise to water surface the day after sowing; examined on the 21st day after application
Procedure, shortened: as §1

[4] = tested on: green foxtail (Setaria viridis (L.) P. Beauv.); test: Test Example 3: herbicidal effect by application to upland field (foliage treatment); settings: foliage treatment, 1,000 g active ingredient per 1 hectare, 14th day after application, greenhouse
Method: (§2) [table] Test Example 3 Test on Herbicidal Effect by Application to Upland Field In a 80 cm2 plastic pot, field soil was filled. Seeds of barnyardgrass (Echinochloa crus-galli (L.) P. Beauv. var. crus-galli), green foxtail (Setaria viridis (L.) P. Beauv.), velvetleaf (Abutilon theophrasti medicus), and slender amaranth (Amaranthus viridis L.) were sown and allowed to grow for two weeks in a greenhouse. Thereafter, the wettable powder prepared according to Formulation Example 1 was diluted in water and a 1,000 liter equivalent amount per 1 hectare so that the active ingredient becomes 1,000 g per 1 hectare was sprayed using a small sprayer from a top of the plants through its entire body for foliage treatment. Then, on the 14th day after the application to the plants grew in a greenhouse, the herbicidal effect was examined in accordance with a standard shown in Table 34.

[5] = tested on: velvetleaf (Abutilon theophrasti medicus); test: as above; settings: foliage treatment, 1,000 g active ingredient per 1 hectare, 14th day after application, greenhouse
Method: as §2

[6] = tested on: barnyardgrass (Echinochloa crus-galli (L.) P. Beauv. var. crus-galli); test: as above; settings: foliage treatment, 1,000 g active ingredient per 1 hectare, 14th day after application, greenhouse
Method: as §2

[7] = tested on: slender amaranth (Amaranthus viridis L.); test: as above; settings: foliage treatment, 1,000 g active ingredient per 1 hectare, 14th day after application, greenhouse
Method: as §2

SMILES	herbicidal effect, Echinochloa oryzicola Vasing [1]	herbicidal effect, Monochoria vaginalis (Burm. f.) C. Presl [2]	herbicidal effect, Scirpus juncoides Roxb. [3]	herbicidal effect, Green Foxtail [4]	herbicidal effect, Velvetleaf [5]	herbicidal effect, Barnyardgrass [6]	herbicidal effect, Slender Amaranth [7]
CNn1c(C(F)(F)F)ccc(C(=O)C2=C(O)CCCC2=O)c1=O [I-157]	5 (90% or more of herbicidal effect and crop phytotoxicity)	5 (90% or more of herbicidal effect and crop phytotoxicity)	5 (90% or more of herbicidal effect and crop phytotoxicity)	5 (90% or more of herbicidal effect and crop phytotoxicity)	5 (90% or more of herbicidal effect and crop phytotoxicity)	5 (90% or more of herbicidal effect and crop phytotoxicity)	5 (90% or more of herbicidal effect and crop phytotoxicity)
CC(C)Nn1c(C(F)(F)F)ccc(C(=O)C2=C(O)CCCC2=O)c1=O [I-160]	5 (90% or more of herbicidal effect and crop phytotoxicity)	5 (90% or more of herbicidal effect and crop phytotoxicity)	5 (90% or more of herbicidal effect and crop phytotoxicity)	3 (50 to less than 70% of herbicidal effect and crop phytotoxicity)	5 (90% or more of herbicidal effect and crop phytotoxicity)	4 (70 to less than 90% of herbicidal effect and crop phytotoxicity)	5 (90% or more of herbicidal effect and crop phytotoxicity)
CCC(C)Nn1c(C(F)(F)F)ccc(C(=O)C2=C(O)CCCC2=O)c1=O (stereo not drawn) [I-163]	5 (90% or more of herbicidal effect and crop phytotoxicity)	5 (90% or more of herbicidal effect and crop phytotoxicity)	5 (90% or more of herbicidal effect and crop phytotoxicity)	5 (90% or more of herbicidal effect and crop phytotoxicity)	5 (90% or more of herbicidal effect and crop phytotoxicity)	5 (90% or more of herbicidal effect and crop phytotoxicity)	5 (90% or more of herbicidal effect and crop phytotoxicity)
CCN(CC)n1c(C(F)(F)F)ccc(C(=O)C2=C(O)CCCC2=O)c1=O [I-172]	5 (90% or more of herbicidal effect and crop phytotoxicity)	5 (90% or more of herbicidal effect and crop phytotoxicity)	5 (90% or more of herbicidal effect and crop phytotoxicity)	5 (90% or more of herbicidal effect and crop phytotoxicity)	5 (90% or more of herbicidal effect and crop phytotoxicity)	5 (90% or more of herbicidal effect and crop phytotoxicity)	5 (90% or more of herbicidal effect and crop phytotoxicity)
CCCN(CCC)n1c(C(F)(F)F)ccc(C(=O)C2=C(O)CCCC2=O)c1=O [I-173]	5 (90% or more of herbicidal effect and crop phytotoxicity)	5 (90% or more of herbicidal effect and crop phytotoxicity)	5 (90% or more of herbicidal effect and crop phytotoxicity)	5 (90% or more of herbicidal effect and crop phytotoxicity)	5 (90% or more of herbicidal effect and crop phytotoxicity)	4 (70 to less than 90% of herbicidal effect and crop phytotoxicity)	4 (70 to less than 90% of herbicidal effect and crop phytotoxicity)
COCCN(C)n1c(C(F)(F)F)ccc(C(=O)C2=C(O)CCCC2=O)c1=O [I-176]	5 (90% or more of herbicidal effect and crop phytotoxicity)	5 (90% or more of herbicidal effect and crop phytotoxicity)	5 (90% or more of herbicidal effect and crop phytotoxicity)	5 (90% or more of herbicidal effect and crop phytotoxicity)	5 (90% or more of herbicidal effect and crop phytotoxicity)	5 (90% or more of herbicidal effect and crop phytotoxicity)	5 (90% or more of herbicidal effect and crop phytotoxicity)
COC(=O)Nn1c(C(F)(F)F)ccc(C(=O)C2=C(O)CCCC2=O)c1=O [I-189]	5 (90% or more of herbicidal effect and crop phytotoxicity)	5 (90% or more of herbicidal effect and crop phytotoxicity)	5 (90% or more of herbicidal effect and crop phytotoxicity)	4 (70 to less than 90% of herbicidal effect and crop phytotoxicity)	5 (90% or more of herbicidal effect and crop phytotoxicity)	4 (70 to less than 90% of herbicidal effect and crop phytotoxicity)	5 (90% or more of herbicidal effect and crop phytotoxicity)
CCN(C(=O)OC(C)(C)C)n1c(C(F)(F)F)ccc(C(=O)C2=C(O)CCCC2=O)c1=O [I-195]	5 (90% or more of herbicidal effect and crop phytotoxicity)	5 (90% or more of herbicidal effect and crop phytotoxicity)	5 (90% or more of herbicidal effect and crop phytotoxicity)	4 (70 to less than 90% of herbicidal effect and crop phytotoxicity)	5 (90% or more of herbicidal effect and crop phytotoxicity)	5 (90% or more of herbicidal effect and crop phytotoxicity)	3 (50 to less than 70% of herbicidal effect and crop phytotoxicity)
CCn1c(C(F)F)ccc(C(=O)C2=C(O)CCCC2=O)c1=O [I-222]	5 (90% or more of herbicidal effect and crop phytotoxicity)	5 (90% or more of herbicidal effect and crop phytotoxicity)	5 (90% or more of herbicidal effect and crop phytotoxicity)	4 (70 to less than 90% of herbicidal effect and crop phytotoxicity)	5 (90% or more of herbicidal effect and crop phytotoxicity)	5 (90% or more of herbicidal effect and crop phytotoxicity)	5 (90% or more of herbicidal effect and crop phytotoxicity)
Cc1ccc(C(=O)C2=C(O)CCCC2=O)c(=O)n1-c1ccccc1 [I-229]	4 (70 to less than 90% of herbicidal effect and crop phytotoxicity)	5 (90% or more of herbicidal effect and crop phytotoxicity)	4 (70 to less than 90% of herbicidal effect and crop phytotoxicity)	4 (70 to less than 90% of herbicidal effect and crop phytotoxicity)	5 (90% or more of herbicidal effect and crop phytotoxicity)	4 (70 to less than 90% of herbicidal effect and crop phytotoxicity)	5 (90% or more of herbicidal effect and crop phytotoxicity)
CCCc1ccc(C(=O)C2=C(O)CCCC2=O)c(=O)n1-c1ccccc1 [I-231]	5 (90% or more of herbicidal effect and crop phytotoxicity)	5 (90% or more of herbicidal effect and crop phytotoxicity)	5 (90% or more of herbicidal effect and crop phytotoxicity)	3 (50 to less than 70% of herbicidal effect and crop phytotoxicity)	4 (70 to less than 90% of herbicidal effect and crop phytotoxicity)	4 (70 to less than 90% of herbicidal effect and crop phytotoxicity)	4 (70 to less than 90% of herbicidal effect and crop phytotoxicity)
Cn1c(C(F)(F)F)ccc(C(=O)C2=C(O)CC(C)(C)CC2=O)c1=O [II-3]	5 (90% or more of herbicidal effect and crop phytotoxicity)	5 (90% or more of herbicidal effect and crop phytotoxicity)	5 (90% or more of herbicidal effect and crop phytotoxicity)	4 (70 to less than 90% of herbicidal effect and crop phytotoxicity)	5 (90% or more of herbicidal effect and crop phytotoxicity)	3 (50 to less than 70% of herbicidal effect and crop phytotoxicity)	5 (90% or more of herbicidal effect and crop phytotoxicity)
